Like-named read-outs stand apart in the source and are kept apart here.
Key:
HCT116 NVL^P307T cells = assay: Cell viability in compound-resistant HCT116 NVL^P307T cells; type: cell-based, human
Description: Assessing the ability of NVL2 inhibitors to selectively kill WT versus NVL2^mut HCT116, block ribosome biogenesis and induce p53. We evaluate analogs in the colorectal cancer cell line HCT116 and already available compound-resistant clones. One clone has a mutation in the compound binding site (NVL2^R403W) and another clone (NVL2^P307T) has a mutation distant from the binding site that confers resistance through an unknown effect. Based on our results, analogs that kill HCT116 cells via NVL2 inhibition (on-target) have reduced potency in compound-resistant HCT116 mutant clones. Our analogs have been counter-screened against the NVL2 compound-resistant mutant clones with fold resistance range between 10-100 fold (most analogs 20-50 fold). This counter screen provides a strategy for identifying off-target toxins.
From whole exome sequencing, we identified variants that were acquired during IAA-induced mutagenesis with the hypothesis that genes related to resistance will be mutated in multiple clones. Two genes contained acquired variants in at least 3 of the 15 selected clones: TERT, mutated in 3 of 15 clones, and NVL, mutated in all 15 clones. […] In sum, 57 out of 59 unique clones harbored NVL mutations. The majority of mutations clustered within the D1 AAA+ ATPase domain and frequently affecting the same codons. To test whether these mutations are sufficient for MM017 resistance, we used CRISPR-Cas9 to knock-in two of the most resistant mutations (NVL^P307T, NVL^R403W) and a mutation with intermediate resistance (NVL^H304R). Transfection of cells with sgRNAs targeting these NVL residues in addition to a mutation-encoding repair template yielded an increased rate of resistance when compared to mock treatments.
HCT116 cells were transfected with TransIT-LT (Mirus #MIR2304) according to manufacturer's protocol with a guide RNA (either mock or NVL targeting) in the px330 vector (Addgene, #42230), and 10 nM single stranded deoxyoligonucleotide encoding a specific NVL mutation (see below for specific sequences). 72 hours after transfection, cells were selected by MM017 treatment. The resulting cells were evaluated by cresyl violet staining or collected and the relevant NVL mutations were analyzed by either amplicon or sanger sequencing.
Cell viability assay: In 96-well assay plates (Corning #2903), 2,000 cells were plated per well in 100 μL of medium and allowed to adhere overnight. The next day, compounds suspended in DMSO were dispensed to the assayed wells using a D300e Digital Dispenser (Tecan). All wells were normalized to 0.5% DMSO. 72 hours after incubation at 37° C. in 5% CO2, cell viability was assayed using an ATP-based luminescent viability assay, CellTiter-Glo (Promega #G8462). Substrate was mixed 1:1 with phosphate-buffered saline (PBS) supplemented with 1% Triton X-100, and 40 μL of this mixture was added to the assay wells. Plates were shaken on a microplate shaker for 10 minutes at room temperature. Luminescence (CellTiter-Glo) was recorded using a Synergy 2 microplate reader (BioTek). In Prism 9 software (GraphPad), ten-point dose response curves were plotted with baseline-correction to the vehicle control well, and IC50 values were calculated by curve fitting using asymmetric (five parameter), least squares fit.

NVL = molecular target: T1, NVL (Homo sapiens, UniProt O15381); assay: Photo-crosslinking, affinity purification and probe displacement of NVL in cells; type: binding; design: endogenous in cells
T1 sequence (O15381 1-856): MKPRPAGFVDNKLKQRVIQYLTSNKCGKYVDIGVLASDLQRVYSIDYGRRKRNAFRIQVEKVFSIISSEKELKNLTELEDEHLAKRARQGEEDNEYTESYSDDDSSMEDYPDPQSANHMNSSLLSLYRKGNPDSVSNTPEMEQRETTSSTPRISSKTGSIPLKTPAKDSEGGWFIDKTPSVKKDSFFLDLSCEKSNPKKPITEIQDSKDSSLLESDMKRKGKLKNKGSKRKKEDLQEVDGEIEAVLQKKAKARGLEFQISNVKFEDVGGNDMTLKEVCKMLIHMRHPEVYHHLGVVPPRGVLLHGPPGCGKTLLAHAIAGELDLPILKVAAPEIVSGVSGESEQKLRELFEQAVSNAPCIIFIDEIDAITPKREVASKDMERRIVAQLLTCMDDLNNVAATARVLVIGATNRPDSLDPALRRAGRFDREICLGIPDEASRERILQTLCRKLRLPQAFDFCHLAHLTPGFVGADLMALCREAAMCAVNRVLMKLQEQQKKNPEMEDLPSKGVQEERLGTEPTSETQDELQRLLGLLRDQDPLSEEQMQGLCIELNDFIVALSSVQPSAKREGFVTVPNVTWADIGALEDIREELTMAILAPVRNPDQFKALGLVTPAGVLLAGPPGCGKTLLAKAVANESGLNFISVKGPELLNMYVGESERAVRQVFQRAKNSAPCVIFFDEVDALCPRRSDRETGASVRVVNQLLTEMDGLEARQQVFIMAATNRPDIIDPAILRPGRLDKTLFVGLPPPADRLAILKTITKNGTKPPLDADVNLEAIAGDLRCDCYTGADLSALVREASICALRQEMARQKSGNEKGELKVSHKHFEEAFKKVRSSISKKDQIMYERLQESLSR
Description: To test whether NVL2 mutations prevent compound binding, we synthesized MM0514, a crosslinker derivative of MM017. MM0514 contains an aryl azide, and thus is capable of covalently modifying target proteins following exposure to UV light. MM0514 also contains an alkyne group providing a “handle” to purify bound proteins using click chemistry. Critically, MM0514 retains on-target activity to HCT116 cells since NVL2^R403W mutant cells are resistant. We crosslinked either parental or NVL2^R403W HCT116 cells to MM0514 and analyzed NVL2 binding. […] To characterize the binding site, we solved the cryo-EM structure of NVL2 with MM017. MM017 binds to a single site in the asymmetric hexamer near the D subunit. Consistent with our binding data, the mutations map near the binding site, including R403, which is mutated to tryptophan in a resistant clone and predicted to prevent binding of MM017 or related analogs. The cryo-EM structure of NVL2 with MM017 provides further evidence of target identification and also a tool for optimizing a bioavailable compound.
To assess whether MM017 binds directly to NVL in cells, we used a MM017 crosslinker (Probe compound (2), Table A) that is UV-activatable and contains an alkyne that can be coupled to biotin for affinity purification. […]

HCT116 cells = assay: Cell viability assay (CellTiter-Glo, 72 hours) in HCT116 human colorectal cancer cells; type: cell-based; conditions: Homo sapiens, HCT-116
Procedure, shortened: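 2,000 cells/well adhered overnight, then compound added by digital dispenser with DMSO normalized to 0.5%. Viability read after 72 h at 37 °C by ATP-based CellTiter-Glo luminescence. IC50 from ten-point curves baseline-corrected to vehicle, five-parameter asymmetric least-squares fit.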

NVL-AID = assay: Viability of NVL^AID/AID cells on auxin-induced NVL degradation; type: cell-based, human
Description: To study the effect of NVL depletion, we engineered a C-terminal FLAG-epitope auxin-inducible degron (AID) tag into NVL in cells that also express the plant E3 ligase TIR1.

902 cancer cell lines = assay: PRISM screen across 902 cancer cell lines; type: cell-based; conditions: 902 cancer cell lines, 1,215 compounds
Description: (§1) Inhibition of 60S ribosome biogenesis is known to induce the stability and upregulation of p53, which could serve as a potential pharmacodynamics marker for MM017 in HCT116 cells. […] We used PRISM (Broad Institute) to evaluate the selectivity of MM017 across 902 cancer cell lines and then correlated this selectivity to 1,215 clinical and pre-clinical compounds in the PRISM database. […] These observations indicate that oxaliplatin and carmofur, like MM017, target ribosome biogenesis.
To nominate genetic predictors of MM017 sensitivity across different cancer types, we performed a PRISM screen across 902 cancer cell lines with known genotypes (31). […] These findings are consistent with the isogenic CRISPR screen and indicate that p53 is a critical effector for MM017 in cancer cells from multiple lineages and with differing genotypes.

p53 and p21 = p53 and p21 protein levels in HCT116 cells; type: cell-based, human
Description: as §1

[1] = system: serine 15 phosphorylated p53; assay: p53 serine 15 phosphorylation (DNA damage response marker); conditions: MM017 up to 10 μM
Description: A biochemical marker for activation of the DNA damage response is phosphorylation of serine 15 of p53, which results in increased p53 protein (41). Thus, we compared the impact of MM017, oxaliplatin, and CX-5461 on both p53 upregulation and p53 serine 15 phosphorylation.

HCT116 NVL^R403W cells = assay: Cell viability counter-screen in compound-resistant HCT116 NVL^R403W cells; type: cell-based, human; conditions: NVL^P307T, NVL^R403W or NVL^H304R cells
Protocol: Design and synthesis of benzothiazepine-based NVL inhibitors. […] Analogs were evaluated against the colorectal cancer cell line HCT116, and counter-screened against a compound resistant NVL2^R403W clone. Cytotoxicity in wild-type HCT116 was determined. […] Initial SAR focused on exploring the replacement of the furan ring of initial dibenzothiazepinone hit MM017. We first explored a wide variety of mono- and di-substituted phenyl rings, including a broad spectrum of functionality (F, Cl, alkyl, alkoxy, fluoroalkoxy, CN, formamide, S(O) Me, carboxyl, . . . ). […]
HCT116 cells were transfected with TransIT-LT (Mirus #MIR2304) according to manufacturer's protocol with a guide RNA (either mock or NVL targeting) in the px330 vector (Addgene, #42230), and 10 nM single stranded deoxyoligonucleotide encoding a specific NVL mutation (see below for specific sequences). […] The resulting cells were evaluated by cresyl violet staining or collected and the relevant NVL mutations were analyzed by either amplicon or sanger sequencing.
Cell viability assay: In 96-well assay plates (Corning #2903), 2,000 cells were plated per well in 100 μL of medium and allowed to adhere overnight. […] Luminescence (CellTiter-Glo) was recorded using a Synergy 2 microplate reader (BioTek). […]

[2] = system: p53 KO and p21 KO HCT116 cells; assay: Growth competition of p53 or p21 knockout versus control HCT116 cells; type: cell-based, human
Description: To better understand how inhibition of NVL by MM017 leads to cell death, we performed a genome wide pooled CRISPR/Cas9 knockout screen in HCT116 cells using a library of guide RNAs targeting 19,114 genes. Cells were pulsed intermittently with vehicle or MM017 over 21 days, at which point MM017 treated cells had undergone 9.79 fewer population doublings. Massively parallel sequencing of PCR products amplified from genomic DNA was used to determine relative levels of sgRNA sequences to infer the relative impact of each gene on compound sensitivity. […] To confirm whether p53 and p21 are required for the anti-proliferative activity of MM017, we performed a growth competition experiment between cells expressing ZsGreen with either p53 or p21 knockout (KO) and control cells expressing mCherry. Without treatment, the ratio between green and red cells was unchanged over time.

[3] = system: HCT116 control and p53 KO cells; assay: Cell death by loss in membrane permeability, HCT116 control and p53 KO cells; type: cell-based, human; conditions: five-day treatment
cleaved caspase-3 = assay: Cleaved caspase-3 (apoptosis), HCT116 control and p53 KO cells; type: cell-based, human
Description: The upregulation of p53 and its effector p21 can arrest cell growth or induce cell death through apoptosis. […] Next, we addressed whether cell death was mediated by an apoptotic pathway by assaying for cleaved caspase-3, a bona fide marker of apoptosis.

With `C#CCOCCN1C(=O)c2ccccc2Sc2cc(NC(=O)c3ccc(N=[N+]=[N-])cc3)ccc21` [Probe compound 2, 4-Azido-N-(11-oxo-10-(2-(prop-2-yn-1-yloxy)ethyl)-10, 11-dihydro-dibenzo[b,f][1,4]thiazepin-7-yl)benzamide] the “resistance of NVL^P307T cells” value (HCT116 NVL^P307T cells) was “comparatively resistant”, the “NVL crosslinked to / purified with probe” value (NVL; UV light) was “only detected in conditions that included both the MM017-probe and UV light” and the IC50 (HCT116 cells; read-out: IC50, proliferation of HCT116 cells) was 470 nM.

`COCCN1C(=O)c2ccccc2Sc2cc(NC(=O)c3ccc(OC)cc3)ccc21` [compound 3] was tested, and the “displacement of MM017-probe from NVL” value (NVL; NVL-FLAG knock-in cell line, increasing doses) was “more effectively displaced MM017-probe” and the IC50 (HCT116 cells; read-out: IC50s (cellular activity of MM017 derivatives)) was 360 nM.

With `O=C(O)Cc1c[nH]c2ccc(-c3ccccc3)cc12` [Ph-IAA, 5-Phenyl-indole-3-acetic acid] the “viability of NVL^AID/AID cells” value (NVL-AID) was “reduced viability in a dose-dependent manner”.

`CCCCCCNC(=O)n1cc(F)c(=O)[nH]c1=O` [carmofur] was tested, and the “correlation (r) of selectivity with MM017” value (902 cancer cell lines) was 0.53.

In the case of `O=C1[O][Pt]2([NH][C@@H]3CCCC[C@H]3[NH]2)[O]C1=O` [oxaliplatin, reference compound], the “p53 levels in parental HCT116 cells” value (p53 and p21) is reported as “dose-dependent increase in the levels of p53” and the “serine 15 phosphorylated p53” value [1] is reported as “dose-dependent increase in phosphorylated p53”.

`CC(=O)O[C@H]1C(=O)[C@@]2(C)[C@H]([C@H](OC(=O)c3ccccc3)[C@]3(O)C[C@H](OC(=O)[C@H](O)[C@@H](NC(=O)c4ccccc4)c4ccccc4)C(C)=C1C3(C)C)[C@]1(OC(C)=O)CO[C@@H]1C[C@@H]2O` [paclitaxel, reference compound] was tested, and the “sensitivity of NVL mutant cells compared to NVL^WT” value (HCT116 NVL^R403W cells) was “equally sensitive”, the “enrichment of p53 or p21 KO cells in growth competition” value [2] was “no competitive advantage” and the “cell death in p53 KO versus control cells” value [3] was “cell death irrespective of p53”.

`CN[C@@H]1C[C@H]2O[C@@](C)([C@@H]1OC)n1c3ccccc3c3c4c(c5c6ccccc6n2c5c31)C(=O)NC4` [Staurosporine, reference compound] was tested, and the “cleaved caspase-3” value (cleaved caspase-3) was “robust caspase activation in both control and p53 KO cells”.
